Assay results published in patent US20200246465A1, “USE OF TRYPTOPHAN DERIVATIVES FOR PROTEIN FORMULATIONS” (Genentech, Inc., priority 2015, published 2020).
Where “and” joins values, the source holds several entries; their conditions need not be identical. Equal values may be shown once.

Assay: ICH light stress of NAT in formulation buffer, RP-HPLC at 240 nm
Format: physicochemical
Conditions: for % NAT degradation ± 1SD: ICH light stress (1.2 million lux-hours, 200 W-hours/m^2 UV, 24 hours), 0.3 mM NAT
Description: A light box [Atlas SunTEST CPS+ Xenon Light Box (Chicago, Ill.)] designed to conduct the drug substance/product photostability test recommended by the International Conference on Harmonization (ICH) Expert Working Group was utilized to provide light stress to NAT-containing samples. The ICH photostability test is defined as 1.2 million lux-hours of white light and 200 W-hours/m^2 of UV light; the light box was programmed to provide the stress over a period of 24 hours. Histidine and non-histidine buffers containing 0.3 mM NAT ±5 mM L-Met were aliquoted into sterile glass vials (1 ml/vial). The vials were capped and placed on their side in the light box to maximize exposure to the light source. A control sample for each buffer condition was covered in foil and placed in the light box for the duration of exposure. For consistency with the other stress models, prior to HPLC analysis, the buffer solutions were diluted with Milli-Q H2O to a final NAT concentration of 0.2 mM.
NAT and NAT degradants were separated on an Agilent 1200 series HPLC or Waters H Class UPLC using an Agilent ZORBAX SB-C18 3.5 μm, 4.6×75 mm reverse phase column. Column temperature was held at 30±0.8° C. by a thermostat controller. The gradients used for HPLC and UPLC are listed in Tables 5 and 6, respectively (note: the shorter gradient on the UPLC was designed to accommodate earlier retention times and the column re-equilibration period was elongated due to the larger range of system pressure at a flow rate of 1.0 ml/min). NAT degradation products were detected at 240 nm. The standard bandwidth setting (8 nm for Agilent 1200 HPLC, 4.8 nm for Waters H-Class) was used for analysis on each instrument. The autosampler was maintained at 5±3° C. 10 nmol of NAT and/or NAT degradants (50 μl for most samples) was injected on to the column for analysis. The chromatograms were processed using Dionex Chromeleon software.
Total NAT degradation for each sample was calculated by comparing NAT peak area to the control sample for each stress model (Table 7). NAT degradation ranged from 3% (thermal stress, non-His buffer) to 83% (ICH light stress, His buffer).

CC(=O)N[C@@H](Cc1c[nH]c2ccccc12)C(=O)O [NAT, N-acetyl-tryptophan]
% NAT degradation ± 1SD (His + 5 mM Met buffer): 17.6 ± 0.7 (n = 2) %
% NAT degradation ± 1SD (His buffer): 83.4 ± 0.2 (n = 2) %
% NAT degradation ± 1SD (Non-His + 5 mM Met buffer): 18 ± 2 (n = 2) %
% NAT degradation ± 1SD (Non-His buffer): 28% and 28.0 ± 0.1 (n = 2) %
improvement to NAT stability by 5 mM Met (total NAT loss) (ICH light stress conditions): 10-16%
